For orientation: IC50 means the concentration at which inhibition is half-maximal.

This passage reports IC50 results from ChEMBL document CHEMBL4190346, “Structure-based design, synthesis, and biological evaluation of withaferin A-analogues as potent apoptotic inducers” (Eur J Med Chem, 2017).

The test system of experiment [1] is HeLa. The experiment is described as follows: Cytotoxicity against human HeLa cells assessed as reduction in cell viability using compound addition to cell culture cells in lag phase of growth and incubated for 48 hrs by MTT assay. Type of experiment: functional, cell-based. The note with it: Homo sapiens, HeLa, 48 h; read-out: IC50.
In experiment [2] the test system is HeLa. Briefly: Cytotoxicity against human HeLa cells assessed as reduction in cell viability using compound addition to cell culture cells in log phase of growth and incubated for 48 hrs by MTT assay. Type of experiment: functional, cell-based. Conditions: Homo sapiens, HeLa, 48 h; read-out: IC50. (In general: Tetrazolium dyes change colour on reduction, which living cells bring about.)

Experiment [3] relates to A549. Briefly: Cytotoxicity against human A549 cells assessed as reduction in cell viability using compound addition to cell culture cells in lag phase of growth and incubated for 48 hrs by MTT assay. Conditions: Homo sapiens, A549, 48 h; read-out: IC50. Format: functional, cell-based.
The test system of experiment [4] is A549. The experiment is described as follows: Cytotoxicity against human A549 cells assessed as reduction in cell viability using compound addition to cell culture cells in log phase of growth and incubated for 48 hrs by MTT assay. Type of experiment: functional, cell-based. Conditions: Homo sapiens, A549, 48 h; read-out: IC50.
Experiment [5] has as its system MCF7. Briefly: Cytotoxicity against human MCF7 cells assessed as reduction in cell viability using compound addition to cell culture cells in lag phase of growth and incubated for 48 hrs by MTT assay. Format: functional, cell-based. Conditions: Homo sapiens, MCF7, 48 h; read-out: IC50.
For experiment [6], the system named is MCF7. The experiment is described as follows: Cytotoxicity against human MCF7 cells assessed as reduction in cell viability using compound addition to cell culture cells in log phase of growth and incubated for 48 hrs by MTT assay. Format: functional, cell-based. Conditions: Homo sapiens, MCF7, 48 h; read-out: IC50.
Experiment [7] concerns Vero. The experiment is described as follows: Cytotoxicity against African green monkey Vero cells assessed as reduction in cell viability using compound addition to cell culture cells in lag phase of growth and incubated for 48 hrs by MTT assay. Format: cell-based, Chlorocebus sabaeus. Conditions: Chlorocebus sabaeus, Vero, 48 h; read-out: IC50.
Experiment [8] relates to Vero. Briefly: Cytotoxicity against African green monkey Vero cells assessed as reduction in cell viability using compound addition to cell culture cells in log phase of growth and incubated for 48 hrs by MTT assay. Format: cell-based, Chlorocebus sabaeus. Conditions: Chlorocebus sabaeus, Vero, 48 h; read-out: IC50.

With `CC1=C(CO)C(=O)O[C@@H]([C@@H](C)[C@H]2CC[C@H]3[C@@H]4C[C@@H]5ON[C@@H]6CC(=O)[C@](C)([C@H]4CC[C@]23C)[C@@]5(O)[C@H]6O)C1`, the IC50 in experiment [1] was over 40 µM; in experiment [2] it was over 40 µM; in experiment [3], over 40 µM; in experiment [4] it was over 40 µM; in experiment [5], over 40000 nM; in experiment [6], over 40000 nM. In addition, the IC50 in experiment [7] was over 40000 nM; in experiment [8], over 40 µM.
With `COC(=O)CCC(=O)OCC1=C(C)C[C@H]([C@@H](C)[C@H]2CC[C@H]3[C@@H]4C[C@H]5O[C@]56[C@@H](O)C=CC(=O)[C@]6(C)[C@H]4CC[C@]23C)OC1=O`, the IC50 in experiment [1] was found to be 0.9 µM; in experiment [2], 2.9 µM; in experiment [3], 2.3 µM; in experiment [4], 3.7 µM; in experiment [5], 400 nM; in experiment [6], 1600 nM. Further, the IC50 is 600 nM in experiment [7] and 0.6 µM in experiment [8].
In the case of `COCC1=C(C)C[C@H]([C@@H](C)[C@H]2CC[C@H]3[C@@H]4C[C@H]5O[C@]56[C@@H](O)C=CC(=O)[C@]6(C)[C@H]4CC[C@]23C)OC1=O`, the IC50 in experiment [1] was found to be 3.2 µM; in experiment [2] it was 3.3 µM; in experiment [3], 4.2 µM; in experiment [4], 5.3 µM; in experiment [5] it was 1400 nM; in experiment [6], 1900 nM. The IC50 in experiment [7] is 900 nM; in experiment [8], 1.5 µM.
`COC(=O)CCC(=O)OCC1=C(C)C[C@H]([C@@H](C)[C@H]2CC[C@H]3[C@@H]4C[C@H]5O[C@]56[C@@H](OC(=O)CCC(=O)OC)C=CC(=O)[C@]6(C)[C@H]4CC[C@]23C)OC1=O`: the IC50 in experiment [1] is 1.8 µM; in experiment [2] it was 2.9 µM; in experiment [3] it was 2.1 µM; in experiment [4], 3.4 µM; in experiment [5], 1400 nM; in experiment [6] it was 1500 nM. The results for the IC50 in experiment [7] and in experiment [8] were 700 nM and 0.6 µM, respectively.
As for `CC1=C(CO)C(=O)O[C@@H]([C@@H](C)[C@H]2CC[C@H]3[C@@H]4C[C@H]5O[C@]56[C@@H](O)[C@@H](NCc5ccccc5)CC(=O)[C@]6(C)[C@H]4CC[C@]23C)C1`, the IC50 turned out to be 8.5 µM in experiment [1]; 11 µM in experiment [2]; 10 µM in experiment [3]; 13.8 µM in experiment [4]; 7200 nM in experiment [5]; 6600 nM in experiment [6]. Further, the IC50 in experiment [7] was 13100 nM; in experiment [8], 7.8 µM.
On to `COC(=O)CCC(=O)OCC1=C(C)C[C@H]([C@@H](C)[C@H]2CC[C@H]3[C@@H]4C[C@H](Cl)[C@]5(O)[C@@H](OC(=O)CCC(=O)OC)C=CC(=O)[C@]5(C)[C@H]4CC[C@]23C)OC1=O`, for which the IC50 in experiment [1] amounted to 14 µM; in experiment [2], 8 µM; in experiment [3] it was 7.8 µM; in experiment [4], 8.9 µM; in experiment [5] it was 5500 nM; in experiment [6] it was 4800 nM. For the same molecule, the values for the IC50 in experiment [7] and in experiment [8] were 3900 nM and 4.1 µM, respectively.
Regarding `COCC1=C(C)C[C@H]([C@@H](C)[C@H]2CC[C@H]3[C@@H]4C[C@H]5O[C@]56[C@@H](O)[C@@H](OC)CC(=O)[C@]6(C)[C@H]4CC[C@]23C)OC1=O`, the IC50 in experiment [1] is over 40 µM; in experiment [2] it was over 40 µM; in experiment [3] it was over 40 µM; in experiment [4] it was over 40 µM; in experiment [5], 26900 nM; in experiment [6], 21600 nM. Besides, the IC50 in experiment [7] is 36900 nM; in experiment [8], over 40 µM.
In the case of `CC(=O)OCC1=C(C)C[C@H]([C@@H](C)[C@H]2CC[C@H]3[C@@H]4C[C@H]5O[C@]56[C@@H](OC(=O)c5ccc(Br)cc5)C=CC(=O)[C@]6(C)[C@H]4CC[C@]23C)OC1=O`, the IC50 in experiment [1] was 1.2 µM; in experiment [2], 2.1 µM; in experiment [3], 2.1 µM; in experiment [4], 1.7 µM; in experiment [5], 400 nM; in experiment [6] it was 600 nM. For the same molecule, the IC50 in experiment [7] was 500 nM; in experiment [8], 0.9 µM.
As to `C=CCOC(=O)/C(CO)=C(C)\C=C\[C@@H](C)[C@H]1CC[C@H]2[C@@H]3C[C@H]4O[C@]45[C@@H](O)C=CC(=O)[C@]5(C)[C@H]3CC[C@]12C`, the IC50 in experiment [1] was found to be 4.2 µM; in experiment [2], 7.1 µM; in experiment [3], 7.9 µM; in experiment [4], 8.3 µM; in experiment [5], 2400 nM; in experiment [6] it was 2400 nM. For the same molecule, the IC50 in experiment [7] was 2200 nM; in experiment [8] it was 4.7 µM.
For the molecule `CCC(=O)OCC1=C(C)C[C@H]([C@@H](C)[C@H]2CC[C@H]3[C@@H]4C[C@H]5O[C@]56C(=O)C=CC(=O)[C@]6(C)[C@H]4CC[C@]23C)OC1=O`, the IC50 in experiment [1] came out at 4.7 µM; in experiment [2], 6.8 µM; in experiment [3] it was 4.2 µM; in experiment [4], 8.3 µM; in experiment [5], 6000 nM; in experiment [6] it was 2300 nM. In addition, the IC50 in experiment [7] was found to be 3800 nM; in experiment [8] it was 1.1 µM.
With `CC1=C(COC(=O)c2ccc(Br)cc2)C(=O)O[C@@H]([C@@H](C)[C@H]2CC[C@H]3[C@@H]4C[C@H]5O[C@]56[C@@H](O)C=CC(=O)[C@]6(C)[C@H]4CC[C@]23C)C1`, the IC50 in experiment [1] amounted to 1.2 µM; in experiment [2], 3.8 µM; in experiment [3], 2.9 µM; in experiment [4], 4.2 µM; in experiment [5], 1000 nM; in experiment [6] it was 2300 nM. The IC50 in experiment [7] came out at 500 nM; in experiment [8], 0.7 µM.
As to `CCCCCCCC(=O)OCC1=C(C)C[C@H]([C@@H](C)[C@H]2CC[C@H]3[C@@H]4C[C@H](Cl)[C@]5(O)[C@@H](O)C=CC(=O)[C@]5(C)[C@H]4CC[C@]23C)OC1=O`, the IC50 is 29.5 µM in experiment [1]; 32.9 µM in experiment [2]; 31.3 µM in experiment [3]; over 40 µM in experiment [4]; 15100 nM in experiment [5]; 13800 nM in experiment [6]. Further, the figures for the IC50 in experiment [7] and in experiment [8] were 16400 nM and 16.1 µM, respectively.
On to `CCCCCCCC(=O)OCC1=C(C)C[C@H]([C@@H](C)[C@H]2CC[C@H]3[C@@H]4C[C@H](Cl)[C@]5(O)[C@@H](OC(=O)CCCCCCC)C=CC(=O)[C@]5(C)[C@H]4CC[C@]23C)OC1=O`, for which the IC50 in experiment [1] was over 40 µM; in experiment [2] it was over 40 µM; in experiment [3] it was over 40 µM; in experiment [4] it was over 40 µM; in experiment [5], over 40000 nM; in experiment [6] it was over 40000 nM. In addition, the IC50 in experiment [7] is over 40000 nM; in experiment [8], over 40 µM.
In the case of `CCCCCCCCCCCC(=O)OCC1=C(C)C[C@H]([C@@H](C)[C@H]2CC[C@H]3[C@@H]4C[C@H]5O[C@]56[C@@H](O)C=CC(=O)[C@]6(C)[C@H]4CC[C@]23C)OC1=O`, the IC50 in experiment [1] was found to be 3.7 µM; in experiment [2], 4.7 µM; in experiment [3], 10.2 µM; in experiment [4] it was 12.2 µM; in experiment [5], 2400 nM; in experiment [6], 3500 nM. Also, the IC50 in experiment [7] is 1900 nM; in experiment [8], 4.7 µM.
For the molecule `CC1=C(COC(=O)c2cccc3ccccc23)C(=O)O[C@@H]([C@@H](C)[C@H]2CC[C@H]3[C@@H]4C[C@H]5O[C@]56[C@@H](OC(=O)c5cccc7ccccc57)C=CC(=O)[C@]6(C)[C@H]4CC[C@]23C)C1`, the IC50 in experiment [1] was over 40 µM; in experiment [2] it was over 40 µM; in experiment [3] it was over 40 µM; in experiment [4], over 40 µM; in experiment [5], over 40000 nM; in experiment [6], over 40000 nM. The IC50 in experiment [7] is over 40000 nM; in experiment [8], over 40 µM.
Regarding `CC1=C(CCl)C(=O)O[C@@H]([C@@H](C)[C@H]2CC[C@H]3[C@@H]4C[C@H]5O[C@]56[C@@H](O)C=CC(=O)[C@]6(C)[C@H]4CC[C@]23C)C1`, the IC50 in experiment [1] is 2.5 µM; in experiment [2] it was 2.8 µM; in experiment [3], 2 µM; in experiment [4], 3.6 µM; in experiment [5], 1100 nM; in experiment [6], 1000 nM. Besides, the half-maximal inhibitory concentration (IC50) stood at 500 nM in experiment [7] and 0.6 µM in experiment [8].
For `CC1=C(C)C(=O)O[C@@H]([C@@H](C)[C@H]2CC[C@H]3[C@@H]4C[C@H]5O[C@]56[C@@H](O)CCC(=O)[C@]6(C)[C@H]4CC[C@]23C)C1`, the IC50 in experiment [1] is over 40 µM; in experiment [2] it was over 40 µM; in experiment [3], over 40 µM; in experiment [4], over 40 µM; in experiment [5], over 40000 nM; in experiment [6], over 40000 nM. In addition, the IC50 is over 40000 nM in experiment [7] and over 40 µM in experiment [8].
